Consider three compounds from patent publication US6613534B2, “MAP-2 as a determinant of metastatic potential” (Wake Forest University Health Sciences, priority 2001, dated 2003).

“Also recorded” adds a separate entry of the source. Read-outs that look alike come from different tables or passages of the source.

For assay [1], the system named is MAP-2 mRNA in SK-MEL-19 melanoma cells. In words: Northern blot of total RNA for MAP-2 expression, cAMP and protein kinase C pathway agents (FIG. 8). The class given is cell-based, human.
Assay [2] relates to TYRP1 mRNA in SK-MEL-19 melanoma cells. The experiment in a line: Northern blot of total RNA for TYRP1 expression (FIG. 8). It is filed as cell-based, human.
Assay [3] relates to SK-MEL-19 human metastatic melanoma cell line. In words: Cell morphology of HMBA-treated melanoma cells (FIG. 3). It is filed as cell-based. Particulars: SK-MEL-19, 5 mM HMBA for 5 days.
The subject of assay [4] is MAP-2 cDNA (approximately 450 bp fragment) in SK-MEL-19 melanoma cells. In words: Differential display RT-PCR of control and HMBA-treated cells. The settings on record: 5 mM HMBA-treated vs control SK-MEL-19 cells. It is filed as cell-based, human. The method, then: Differential display was used to characterize changes in gene expression associated with growth inhibition in melanoma cells. For differential display (DD), RT-PCR was performed using a GeneAmp System 2400 (Perkin-Elmer Corp., Foster City, Calif.). DD was performed using the DeltaTM Differential Display Kit (Clontech Laboratories Inc.). […] Diluted cDNA (1:12.5 and 1:50) was used to amplify DD-PCR product in the presence of [α-^33P]dATP (Dupont NEN, Boston, Mass.) using a random combination of arbitrary primers and oligo (dT) primers. PCR products were resolved by electrophoresis in a 5% polyacrylamide, 8 M urea sequencing gel. The gel was dried and exposed to Biomax MS film (Kodak, Rochester, N.Y.). Bands differentially expressed between untreated and treated samples were cut, eluted, re-amplified, sequenced by the ABI 377 DNA Sequencer (Perkin-Elmer Corp., Foster City, Calif.). Differential display analysis was performed using RNA obtained from control and HMBA-treated SK-MEL-19 melanoma cells. Primer […] NO: 4) and oligo dT primer […] U32996; nucleotides 1931-2384). […] Cell Biol., 106:779-783 (1988)).

Assay [5] concerns cultured human metastatic melanoma cells. The settings on record: cited from earlier work.
In assay [6] the test system is TYRP1 in cultured human metastatic melanoma cells. The settings on record: cited from earlier work.
Assay [7] relates to mouse erythroleukemia cells (MEL) and a variety of human tumor cells. Particulars: cited from earlier work.
Setting [8] is: SK-MEL-19, 5 mM HMBA, 2.5 nM CT, 10 ng/ml TPA or combinations, 6, 24 and 48 h.

Consider `CCCCCCCCCCCCCC(=O)O[C@@H]1[C@@H](C)[C@@]2(O)[C@@H](C=C(CO)C[C@]3(O)C(=O)C(C)=C[C@@H]23)[C@@H]2C(C)(C)[C@]12OC(C)=O` [TPA, 12-O-tetradecanoyl phorbol-13-acetate], for which, in assay [1], the “MAP-2 expression (MAP-2c mRNA)” value is recorded as “did not induce MAP-2 expression; also recorded: does not change MAP-2 expression”. The “TYRP1 mRNA expression” value in assay [2] is “did not cause down-regulation of TYRP1 mRNA”.

As to cholera toxin [CT], the “MAP-2 expression (MAP-2c mRNA)” value in assay [1] is reported as “did not induce MAP-2 expression; also recorded: does not change MAP-2 expression”. For the same compound, the “TYRP1 mRNA expression” value in assay [2] is recorded as “did not cause down-regulation of TYRP1 mRNA”.

On to `CC(=O)NCCCCCCNC(C)=O` [HMBA, hexamethylene bisacetamide], for which the “MAP-2 expression (MAP-2c mRNA)” value in assay [1] (setting [8]) is on record as “up-regulation of MAP-2 expression was detected”. Further, the “TYRP1 mRNA expression” value in assay [2] (setting [8]) was “extinction of TYRP1 expression”. Moreover, the cell morphology result in assay [3] is recorded as “induction of dendritic morphology; also recorded: formation of dendrite-like structures”. Besides, the “expression of ~450 bp MAP-2 cDNA by differential display” value in assay [4] is given as “over expressed in treated cells; also recorded: generates an approximately 450 bp cDNA”. The cell growth result in assay [5] is recorded as “inhibits growth”. Moreover, in assay [6], the TYRP1 expression entry is “selective down-regulation”. In assay [7], the cell cycle distribution result was “accumulation of cells in G0/G1 phase with a significant decrease in population of cells in G2/M phase”. Moreover, in assay [7] (mouse erythroleukemia cells (MEL) and a variety of human tumor cells), the terminal differentiation entry is “induce terminal differentiation”.
